# Experimental data: patent US20260166039A1 (SCHRÖDINGER, INC., priority 2022, published 2026)
# Like-named read-outs stand apart in the source and are kept apart here.
# Columns and labels:
# Wee1 kinase domain = biological target: T1, Wee1 kinase domain (Homo sapiens, UniProt P30291); test: Wee1 Kinase Biochemical Assay (ADP-Glo); conditions: 15 uM ATP
# T1 construct: Wee1 kinase domain was purchased from Carna (catalog #05-177); purchased Carna 05-177
# Procedure, shortened: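 ADP-Glo detection of ADP produced after 4 h at 25° C by 1 nM Wee1 kinase domain on 2 ng/mL poly(Lys,Tyr 4:1) with 15 uM ATP. Buffer: 40 mM Tris-HCl, 20 mM MgCl2, 0.1 mg/mL BSA, 2 mM DTT. Inhibition is relative to DMSO (high) and saturating Wee1 inhibitor (low) controls.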
# [1] = system: phosphorylation of Cdc2 Y15 (Wee1 substrate) in A427 cells; test: Phosphorylated Cdc2 MSD Electrochemiluminescence Assay; format: cell-based; conditions: Homo sapiens
# Procedure, shortened: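 Read-out: percent residual phospho-Cdc2 Y15 relative to DMSO and positive-control Wee1 inhibitor, measured by MSD electrochemiluminescence capture/detection antibody assay in cell lysates. A427 cells received duplicate 3-fold compound dilution series 20 h post-seeding, with 6 h total incubation at 37 °C.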
# [2] = class symbols, 1 nM Wee1 enzyme, 4 hours at 25° C.
# [3] = A-427, class symbols, read-out: A427 pCDC2 MSD IC50
# T1 sequence (P30291 299-569 limits assumed): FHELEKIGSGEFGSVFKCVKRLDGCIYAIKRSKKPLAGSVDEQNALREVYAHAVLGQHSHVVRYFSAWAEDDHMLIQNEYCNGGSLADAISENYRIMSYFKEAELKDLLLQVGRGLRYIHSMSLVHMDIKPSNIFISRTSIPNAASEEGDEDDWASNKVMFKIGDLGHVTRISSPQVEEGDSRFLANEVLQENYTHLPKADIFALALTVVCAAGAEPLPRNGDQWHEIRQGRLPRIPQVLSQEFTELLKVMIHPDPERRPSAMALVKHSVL
Compound,"IC50 (Wee1 kinase domain; Wee1 kinase domain, ADP-Glo)","IC50 ([1]; A-427, pCDC2 MSD)",IC50 (Wee1 kinase domain; [2]),"IC50 [1, 3]"
"CN1CCC(n2cc(Nc3ncc4c(n3)N(c3cccc(N=S(C)(C)=O)n3)[C@@H]3CC(C)(C)OC[C@]43C)cn2)CC1 (single isomer, unassigned) [Example 102]",< 10 nM,100 to 1000 nM,–,–
"CN[C@H](C)c1cccc(N2c3nc(Nc4ccc(N5CCOCC5)cc4)ncc3[C@@]3(C)COC(C)(C)C[C@@H]23)n1 (single isomer, unassigned) [Example 549]",–,–,< 10 nM,< 100 nM
"CC1(C)C[C@H]2N(c3cccc(N=S(C)(C)=O)n3)c3nc(Nc4ccc(N5C[C@@H]6C[C@H]5CO6)cc4)ncc3[C@@]2(C)CO1 (single isomer, unassigned) [Example 497]",–,–,< 10 nM,100 to 1000 nM
"CN1C[C@H]2C[C@@H]1CN2c1ccc(Nc2ncc3c(n2)N(c2cccc(C4(O)COC4)n2)[C@@H]2CC(C)(C)OC[C@]32C)cc1 (single isomer, unassigned) [Example 517]",–,–,< 10 nM,100 to 1000 nM
"Cc1cc(Nc2ncc3c(n2)N(c2cccc(N4CCCC4=O)n2)[C@@H]2CC(C)(C)OC[C@]32C)ccc1N1C[C@H]2C[C@@H]1CN2C [Example 658, 1-(6-((4bR,8aR)-4b,7,7-trimethyl-2-((3-methyl-4-((1R,4R)-5-methyl-2,5-diazabicyclo[2.2.1]heptan-2-yl)phenyl)amino)-4b,7,8,8a-tetrahydropyrano[3′,4′:4,5]pyrrolo[2,3-d]pyrimidin-9(5H)-yl)pyridin-2-yl)pyrrolidin-2-one]",–,–,< 10 nM,100 to 1000 nM
"CNCc1cccc(N2c3nc(Nc4ccccc4)ncc3[C@@]3(C)COC(C)(C)C[C@@H]23)n1 (single isomer, unassigned) [Example 45]",< 10 nM,100 to 1000 nM,–,–
"CN1CCN(c2ccc(Nc3ncc4c(n3)N(c3ccn(C(F)F)n3)[C@@H]3CC(C)(C)OC[C@]43C)cc2)CC1 (single isomer, unassigned) [Example 720]",–,–,< 10 nM,100 to 1000 nM
"CN1CCN(c2ccc(Nc3ncc4c(n3)N(c3cccc(N=S(C)(C)=O)n3)[C@@H]3CC(C)(C)OC[C@]43C)cc2)CC1 [Example 100, Dimethyl((6-((4bR,8aR)-4b,7,7-trimethyl-2-((4-(4-methylpiperazin-1-yl)phenyl)amino)-4b,7,8,8a-tetrahydropyrano[3′,4′:4,5]pyrrolo[2,3-d]pyrimidin-9(5H)-yl)pyridin-2-yl)imino)-l6-sulfanone]",< 10 nM,< 100 nM,–,–
"CN1C[C@@H]2C[C@H]1CN2c1ccc(Nc2ncc3c(n2)N(c2cccc(N=S(C)(C)=O)n2)[C@@H]2CC(C)(C)OC[C@]32C)cc1 (single isomer, unassigned) [Example 124]",< 10 nM,< 100 nM,–,–
"C[C@H]1COC(=O)N1c1cccc(N2c3nc(Nc4ccc(N5CCN(C)CC5)cc4)ncc3[C@@]3(C)COCC[C@@H]23)n1 (single isomer, unassigned) [Example 702]",–,–,< 10 nM,100 to 1000 nM
"CC1(C)C[C@H]2N(c3cccc(N=S(C)(C)=O)n3)c3nc(NC(=O)[C@H]4C[C@@H]4C4CCOCC4)ncc3[C@@]2(C)CO1 (single isomer, unassigned) [Example 411]",–,–,< 10 nM,1000 to 10000 nM
"CNCc1cccc(N2c3nc(Nc4ccc(S(C)(=O)=O)cc4)ncc3[C@@]3(C)COC(C)(C)C[C@@H]23)n1 (single isomer, unassigned) [Example 34]",< 10 nM,100 to 1000 nM,–,–
"CC1(C)C[C@H]2N(c3ccc4c(n3)[C@](C)(N)CC4)c3nc(Nc4ccc(N5CCOCC5)cc4)ncc3[C@@]2(C)CO1 (single isomer, unassigned) [Example 564]",–,–,< 10 nM,< 100 nM
"CN1CCC[C@@H]1c1cccc(N2c3nc(Nc4ccn(C5CCOCC5)c(=O)c4)ncc3[C@@]3(C)COC(C)(C)C[C@@H]23)n1 (single isomer, unassigned) [Example 395]",< 10 nM,100 to 1000 nM,–,–

# Results, then the compound that gave them:
"IC50 (Wee1 kinase domain; Wee1 kinase domain, ADP-Glo)","IC50 ([1]; A-427, pCDC2 MSD)",IC50 (Wee1 kinase domain; [2]),"IC50 [1, 3]",Compound
< 10 nM,< 100 nM,–,–,"CNCc1cccc(N2c3nc(Nc4ccc([C@H]5CNC(=O)C5)cc4)ncc3[C@@]3(C)COC(C)(C)C[C@@H]23)n1 (single isomer, unassigned) [Example 61]"
–,–,< 10 nM,100 to 1000 nM,"CN1CC[C@@H]2CN(c3ccc(Nc4ncc5c(n4)N(c4cccc(C(C)(C)O)n4)[C@@H]4CC(C)(C)OC[C@]54C)cc3)C[C@@H]21 (single isomer, unassigned) [Example 437]"
< 10 nM,100 to 1000 nM,–,–,"C[C@H]1COC(=O)N1c1cccc(N2c3nc(Nc4ccc([C@H]5CCN(C)C5)cc4)ncc3[C@@]3(C)COC(C)(C)C[C@@H]23)n1 (single isomer, unassigned) [Example 306]"
< 10 nM,100 to 1000 nM,–,–,"C[C@H]1CN(c2ccc(Nc3ncc4c(n3)N(c3cccc(N5C(=O)OC[C@@H]5C)n3)[C@@H]3CC(C)(C)OC[C@]43C)cc2)CCN1C (single isomer, unassigned) [Example 315]"
< 10 nM,100 to 1000 nM,–,–,"C[C@H]1COC(=O)N1c1cccc(N2c3nc(Nc4ccc(N5CCN(C)CC5)cc4)ncc3[C@]3(C)COC(C)(C)C[C@H]23)n1 (single isomer, unassigned) [Example 235]"
< 10 nM,< 100 nM,–,–,"CNCc1cccc(N2c3nc(Nc4ccc(N5C[C@@H]6C[C@H]5CO6)cc4)ncc3[C@@]3(C)COC(C)(C)C[C@@H]23)n1 (single isomer, unassigned) [Example 41]"
–,–,< 10 nM,100 to 1000 nM,"CC1(C)C[C@H]2N(c3cccc(N4CCCC4=O)n3)c3nc(Nc4ccc([C@H]5CCNC5)cc4)ncc3[C@@]2(C)CO1 [Example 636, 1-(6-((4bR,8aR)-4b,7,7-trimethyl-2-((4-((R)-pyrrolidin-3-yl)phenyl)amino)-4b,7,8,8a-tetrahydropyrano[3′,4′:4,5]pyrrolo[2,3-d]pyrimidin-9(5H)-yl)pyridin-2-yl)pyrrolidin-2-one]"
–,–,< 10 nM,< 100 nM,"CN1CC[C@H](Oc2ccc(Nc3ncc4c(n3)N(c3cccc(N5CCCC5=O)n3)[C@@H]3CC(C)(C)OC[C@]43C)cc2)C1 [Example 618, 1-(6-((4bR,8aR)-4b,7,7-trimethyl-2-((4-(((S)-1-methylpyrrolidin-3-yl)oxy)phenyl)amino)-4b,7,8,8a-tetrahydropyrano[3′,4′:4,5]pyrrolo[2,3-d]pyrimidin-9(5H)-yl)pyridin-2-yl)pyrrolidin-2-one]"
< 10 nM,1000 to 10000 nM,–,–,"C[C@H]1COC(=O)N1c1cccc(N2c3nc(Nc4ccc(C(C)(C)C)nc4)ncc3[C@@]3(C)COC(C)(C)C[C@@H]23)n1 (single isomer, unassigned) [Example 301]"
< 10 nM,100 to 1000 nM,–,–,"C[C@H]1COC(=O)N1c1cccc(N2c3nc(Nc4ccc(O[C@H]5CCNC5)cc4)ncc3[C@@]3(C)COC(C)(C)C[C@@H]23)n1 (single isomer, unassigned) [Example 329]"
–,–,< 10 nM,100 to 1000 nM,"CN=[S@@](C)(=O)c1cccc(N2c3nc(Nc4ccc(C5CCN(C)CC5)cc4)ncc3[C@@]3(C)COC(C)(C)C[C@@H]23)n1 (single isomer, unassigned) [Example 752]"
–,–,< 10 nM,100 to 1000 nM,"CN1CC2(C1)CN(c1ccc(Nc3ncc4c(n3)N(c3cccc(N5CCCC5=O)n3)[C@@H]3CC(C)(C)OC[C@]43C)cc1)C2 [Example 690, 1-(6-((4bR,8aR)-4b,7,7-trimethyl-2-((4-(6-methyl-2,6-diazaspiro[3.3]heptan-2-yl)phenyl)amino)-4b,7,8,8a-tetrahydropyrano[3′,4′:4,5]pyrrolo[2,3-d]pyrimidin-9(5H)-yl)pyridin-2-yl)pyrrolidin-2-one]"
< 10 nM,100 to 1000 nM,–,–,"C[C@H]1COC(=O)N1c1cccc(N2c3nc(Nc4ccc([C@@]5(C)CCN(C)C5)cc4)ncc3[C@@]3(C)COC(C)(C)C[C@@H]23)n1 (single isomer, unassigned) [Example 349]"
< 10 nM,< 100 nM,–,–,"CN1CC[C@@H](Oc2ccc(Nc3ncc4c(n3)N(c3cccc(N=S(C)(C)=O)n3)[C@@H]3CC(C)(C)OC[C@]43C)cc2)C1 (single isomer, unassigned) [Example 159]"
–,–,< 10 nM,100 to 1000 nM,"CN1CCN(c2ccc(Nc3ncc4c(n3)N(c3cccc(N5CCCC5=O)n3)[C@@H]3CC(C)(C)OC[C@]43C)cc2)CC1 (single isomer, unassigned) [Example 587]"
< 10 nM,< 100 nM,–,–,"CN1CCC(c2ccc(Nc3ncc4c(n3)N(c3cccc(N=S(C)(C)=O)n3)[C@H]3CC(C)(C)OC[C@@]43C)cc2)CC1 (single isomer, unassigned) [Example 112]"
< 10 nM,100 to 1000 nM,–,–,"Cc1cc(Nc2ncc3c(n2)N(c2cccc(N4C(=O)OC[C@@H]4C)n2)[C@@H]2CC(C)(C)OC[C@]32C)ccc1N1C[C@@H]2C[C@H]1CN2C (single isomer, unassigned) [Example 295]"
–,–,< 10 nM,100 to 1000 nM,"CN1C[C@@H]2C[C@H]1CN2c1ccc(Nc2ncc3c(n2)N(c2cccc(N4CCCC4=O)n2)[C@@H]2CC(C)(C)OC[C@]32C)cc1 [Example 629, 1-(6-((4bR,8aR)-4b,7,7-trimethyl-2-((4-((1S,4S)-5-methyl-2,5-diazabicyclo[2.2.1]heptan-2-yl)phenyl)amino)-4b,7,8,8a-tetrahydropyrano[3′,4′:4,5]pyrrolo[2,3-d]pyrimidin-9(5H)-yl)pyridin-2-yl)pyrrolidin-2-one]"
–,–,< 10 nM,< 100 nM,"CN1CCN(c2ccc(Nc3ncc4c(n3)N(c3cccc(N5CCOC5=O)n3)[C@@H]3CC(C)(C)OC[C@]43C)cc2)CC1 (single isomer, unassigned) [Example 577]"
